Here are results for four molecules from ChEMBL document CHEMBL3137667, “[Drug-induced liver injury; fourteenth updated edition of the bibliographic database of liver injuries and related drugs]” (Gastroenterol Clin Biol, 2004).

The conditions of series [1]: human.
Series [2] is described as follows: Highest frequency of moderate liver toxicity observed during clinical trials, expressed as a percentage. [column '% BIOL' in source]. To be noted: human.
The conditions of series [3]: human. This is another data set of the same source.
The conditions of series [4]: human. This is another data set of the same source.
For series [5] the following is noted: human. The source holds these as a separate data set.
The conditions of series [6]: human. The source holds these as a separate data set.
For series [7] the following is noted: human, serum.
For series [8] the following is noted: human. This is another data set of the same source.
A short description of series [9]: Highest frequency of acute liver toxicity observed during clinical trials, expressed as a percentage. [column '% AIGUE' in source]. Particulars: human.
For series [10] the following is noted: human. The source holds these as a separate data set.
The conditions of series [11]: human. The source holds these as a separate data set.
The conditions of series [12]: human. The source holds these as a separate data set.
For series [13] the following is noted: human, serum, 4383 h.
For series [14] the following is noted: human, serum. This is another data set of the same source.
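Throughout, for Hepatotoxicity (association with vascular disease): count of indexed literature references reporting vascular liver injury in humans, e.g. peliosis hepatitis, hepatic veno-occlusive disease or Budd-Chiari syndrome.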
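Throughout, for Hepatotoxicity (benign tumour): value is a count of indexed literature references citing a benign tumour confirmed by histopathology.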
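Throughout, for Hepatotoxicity (choleostasis): human cholestatic liver injury, shown by histopathology or by peak ALT or AST elevation over alkaline phosphatase ratio below 2, value counts indexed literature reports.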
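Throughout, for Hepatotoxicity (chronic liver disease): chronic liver injury confirmed by histopathology or persistently raised serum aminotransferase activity beyond 6 months, value given as the count of indexed literature references.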
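Throughout, for Hepatotoxicity (cirrhosis): value is a count of indexed literature references reporting cirrhosis confirmed by histopathology.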
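Throughout, for Hepatotoxicity (cytolytic): human cytolytic liver injury, shown by histopathology or by a ratio above 5 of peak ALT or AST elevation to alkaline phosphatase elevation, value counts indexed references.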
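Throughout, for Hepatotoxicity (granulomatous hepatitis): value is a count of indexed literature references reporting granulomatous liver disease confirmed by histopathology.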
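Throughout, for Hepatotoxicity (malignant tumour): malignant tumour confirmed by histopathology, value gives the count of indexed literature references reporting it.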
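Throughout, for Hepatotoxicity (severe hepatitis): human clinical data: severe hepatitis, meaning potentially life-threatening liver failure or clinically observed cases, the value counts how many indexed literature references report it.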
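Throughout, for Hepatotoxicity (steatosis): steatosis confirmed by histopathology, value is the count of indexed references.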

For the molecule `N[C@@H]1CN(c2c(F)cc3c(=O)c(C(=O)O)cn([C@@H]4C[C@@H]4F)c3c2Cl)CC12CC2` [SITAFLOXACIN ANHYDROUS], the “Hepatotoxicity (cirrhosis)” value in [1] came to 0. The “Hepatotoxicity (moderate)” value in series [2] amounted to 23.2%; in series [14], 6. For the same molecule, the “Hepatotoxicity (cytolytic)” value in [3] worked out at 0. In addition, the “Hepatotoxicity (granulomatous hepatitis)” value in [4] is reported as 0. For the same molecule, the “Hepatotoxicity (association with vascular disease)” value in [5] came out at 0. For the same molecule, the “Hepatotoxicity (steatosis)” value in [6] is 0. For the same molecule, the entries for the “Hepatotoxicity (acute)” value in [7] and in series [9] were 0 and 0%, respectively. In addition, the “Hepatotoxicity (choleostasis)” value in series [8] was 0. For the same molecule, the “Hepatotoxicity (severe hepatitis)” value in series [10] is on record as 0. For the same molecule, in series [11], the “Hepatotoxicity (malignant tumour)” value worked out at 0. Moreover, the “Hepatotoxicity (benign tumour)” value in series [12] came out at 0. Also, the “Hepatotoxicity (chronic liver disease)” value in series [13] was 0.
For `Cc1cc2c(cc1CC(=O)c1sccc1S(=O)(=O)Nc1onc(C)c1Cl)OCO2` [SITAXENTAN], in series [1], the “Hepatotoxicity (cirrhosis)” value worked out at 0. For the same molecule, the “Hepatotoxicity (moderate)” value in [2] came out at 0%; in series [14], 1. Besides, the “Hepatotoxicity (cytolytic)” value in series [3] stood at 0. For the same molecule, the “Hepatotoxicity (granulomatous hepatitis)” value in [4] is listed as 0. Besides, the “Hepatotoxicity (association with vascular disease)” value in [5] turned out to be 0. The “Hepatotoxicity (steatosis)” value in series [6] came to 0. Further, the “Hepatotoxicity (acute)” value in series [7] is given as 0; in series [9] it was 0%. The “Hepatotoxicity (choleostasis)” value in series [8] came to 0. Further, the “Hepatotoxicity (severe hepatitis)” value in [10] is recorded as 0. Besides, the “Hepatotoxicity (malignant tumour)” value in series [11] is recorded as 0. Further, in [12], the “Hepatotoxicity (benign tumour)” value is 0. Further, the “Hepatotoxicity (chronic liver disease)” value in [13] is 0.
Take NEDAPLATIN: the “Hepatotoxicity (cirrhosis)” value in series [1] came to 0. In addition, the results for the “Hepatotoxicity (moderate)” value in [2] and in series [14] were 19.2% and 1, respectively. Further, in [3], the “Hepatotoxicity (cytolytic)” value was found to be 0. In addition, the “Hepatotoxicity (granulomatous hepatitis)” value in [4] amounted to 0. In addition, the “Hepatotoxicity (association with vascular disease)” value in series [5] came out at 0. The “Hepatotoxicity (steatosis)” value in series [6] came to 0. Besides, the “Hepatotoxicity (acute)” value is 0 in series [7] and 0% in [9]. Also, in [8], the “Hepatotoxicity (choleostasis)” value is 0. Moreover, the “Hepatotoxicity (severe hepatitis)” value in series [10] is recorded as 0. The “Hepatotoxicity (malignant tumour)” value in [11] was found to be 0. Further, the “Hepatotoxicity (benign tumour)” value in series [12] was determined as 0. For the same molecule, the “Hepatotoxicity (chronic liver disease)” value in series [13] amounted to 0.
Regarding `COc1cccc2c1C(=O)c1c(O)c3c(c(O)c1C2=O)C[C@@](O)(/C(C)=N/NC(=O)c1ccccc1)C[C@@H]3O[C@H]1C[C@H](N)[C@H](O)[C@H](C)O1` [ZORUBICIN], the “Hepatotoxicity (cirrhosis)” value in series [1] was 0. Also, the “Hepatotoxicity (moderate)” value in series [2] was determined as 51.7%; in series [14], 1. Besides, in series [3], the “Hepatotoxicity (cytolytic)” value came out at 0. In series [4], the “Hepatotoxicity (granulomatous hepatitis)” value was 0. The “Hepatotoxicity (association with vascular disease)” value in series [5] stood at 0. In series [6], the “Hepatotoxicity (steatosis)” value worked out at 0. For the same molecule, the entries for the “Hepatotoxicity (acute)” value in series [7] and in series [9] were 1 and 17.2%, respectively. Moreover, the “Hepatotoxicity (choleostasis)” value in series [8] is reported as 1. Also, in series [10], the “Hepatotoxicity (severe hepatitis)” value turned out to be 1. The “Hepatotoxicity (malignant tumour)” value in [11] was determined as 0. Moreover, the “Hepatotoxicity (benign tumour)” value in series [12] worked out at 0. For the same molecule, the “Hepatotoxicity (chronic liver disease)” value in [13] was found to be 0.
